Assay results reported in ChEMBL document CHEMBL5120890, “Untapped Pharmaceutical Potential of 4,5,4'-Trihydroxy-3,3'-dimethoxybibenzyl for Regulating Obesity: A Cell-Based Study with a Focus on Terminal Differentiation in Adipogenesis” (J Nat Prod, 2022).
The source made the active and inactive calls. No cut-off for these calls is given here.

Key:
[1] = target: T1, 5'-AMP-activated protein kinase (Mus musculus) (UniProt Q5EG47+Q8BRK8+Q6PAM0+O54950+Q91WG5+Q9R078+Q8BGM7); test: Activation of AMPK in mouse 3T3-L1 cells assessed as increase in AMPKbeta phosphorylation in early differentiation at 0.5 to 5 uM after 48 hrs by Western blot analysis; assay type: cell-based; conditions: filed as activator, dose 0.5-5 µM
[2] = (§1) Cytotoxicity against mouse 3T3-L1 pre-adipocytes assessed as reduction in cell viability after 48 hrs by MTT assay; assay type: toxicity, cell-based; conditions: 3T3-L1 pre-adipocytes
[3] = system: 3T3-L1; test: as §1; assay type: toxicity, cell-based; conditions: 3t3-l1, 48 h, time 48 hrs
[4] = system: 3T3-L1; test: Induction of apoptosis in mouse 3T3-L1 pre-adipocytes at 0.5 to 5 uM after 48 hrs by PI/Hoechst 33342 staining based fluorescence microscopic analysis; assay type: functional, cell-based; conditions: dose 0.5-5 µM
[5] = system: 3T3-L1; test: Induction of apoptosis in mouse 3T3-L1 adipocytes at 0.5 to 5 uM after 48 hrs by PI/Hoechst 33342 staining based fluorescence microscopic analysis; assay type: functional, cell-based; conditions: dose 0.5-5 µM
[6] = system: PCS-210-010; test: Induction of apoptosis in human PCS-210-010 pre-adipocytes at 0.5 to 5 uM after 48 hrs by PI/Hoechst 33342 staining based fluorescence microscopic analysis; assay type: functional, cell-based; conditions: dose 0.5-5 µM
[7] = system: 3T3-L1; test: Inhibition of preadipocyte differentiation in mouse 3T3-L1 cells assessed as reduction in lipid droplet accumulation in maturation at 0.5 to 5 uM incubated for 8 days by Oil Red O staining based inverted optical microscopic analysis; assay type: functional, cell-based; conditions: dose 0.5-5 µM, time 8.0 day
[8] = system: PCS-210-010; test: Inhibition of preadipocyte differentiation in human PCS-210-010 cells assessed as reduction in lipid droplet accumulation in early differentiation at 0.5 to 5 uM incubated for 8 days by Oil Red O staining based inverted optical microscopic analysis; assay type: functional, cell-based; conditions: dose 0.5-5 µM, time 8.0 day
[9] = system: PCS-210-010; test: Inhibition of preadipocyte differentiation in human PCS-210-010 cells assessed as reduction in lipid droplet accumulation in maturation at 0.5 to 5 uM incubated for 8 days by Oil Red O staining based inverted optical microscopic analysis; assay type: functional, cell-based; conditions: dose 0.5-5 µM, time 8.0 day
[10] = system: PCS-210-010; test: Inhibition of preadipocyte differentiation in human PCS-210-010 cells assessed as reduction in triglyceride accumulation in early differentiation at 0.5 to 5 uM incubated for 8 days by colorimetric assay; assay type: functional, cell-based; conditions: dose 0.5-5 µM, time 8.0 day, DDE = dose-dependent effect
[11] = system: PCS-210-010; test: Inhibition of preadipocyte differentiation in human PCS-210-010 cells assessed as reduction in triglyceride accumulation in maturation at 0.5 to 5 uM incubated for 8 days by colorimetric assay; assay type: functional, cell-based; conditions: dose 0.5-5 µM, time 8.0 day, DDE = dose-dependent effect
[12] = system: 3T3-L1; test: Inhibition of preadipocyte differentiation in mouse 3T3-L1 cells assessed as increase in glycerol release in maturation at 0.5 to 5 uM incubated for 8 days by colorimetric assay; assay type: functional, cell-based; conditions: dose 0.5-5 µM, time 8.0 day, DDE = dose-dependent effect
[13] = system: PCS-210-010; test: Inhibition of preadipocyte differentiation in human PCS-210-010 cells assessed as increase in glycerol release in maturation at 0.5 to 5 uM incubated for 8 days by colorimetric assay; assay type: functional, cell-based; conditions: dose 0.5-5 µM, time 8.0 day, DDE = dose-dependent effect
[14] = system: 3T3-L1; test: Down regulation of FAS protein expression in mouse 3T3-L1 cells in early differentiation at 0.5 to 5 uM after 8 days by western blot analysis; assay type: functional, cell-based; conditions: dose 0.5-5 µM, time 8.0 day
[15] = system: 3T3-L1; test: Antiproliferative activity against mouse 3T3-L1 cells assessed as reduction in cell proliferation at 0.5 to 5 uM after 24 to 72 hrs by crystal violet staining based assay; assay type: functional; conditions: dose 0.5-5 µM, time 24-72 hrs
[16] = system: 3T3-L1; test: Down regulation of Cyclin D1 protein expression in mouse 3T3-L1 cells at 0.5 to 5 uM after 18 hrs by western blot analysis; assay type: functional, cell-based; conditions: dose 0.5-5 µM
[17] = system: 3T3-L1; test: Effect on Cyclin D3 protein expression in mouse 3T3-L1 cells at 0.5 to 5 uM after 18 hrs by western blot analysis; assay type: functional, cell-based; conditions: dose 0.5-5 µM
[18] = system: 3T3-L1; test: Down regulation of CDK2 protein expression in mouse 3T3-L1 cells at 0.5 to 5 uM after 18 hrs by western blot analysis; assay type: functional, cell-based; conditions: dose 0.5-5 µM
[19] = system: 3T3-L1; test: Down regulation of CDK4 protein expression in mouse 3T3-L1 cells at 0.5 to 5 uM after 18 hrs by western blot analysis; assay type: functional, cell-based; conditions: dose 0.5-5 µM
[20] = system: 3T3-L1; test: Upregulation of p27 protein expression in mouse 3T3-L1 cells at 0.5 to 5 uM after 18 hrs by western blot analysis; assay type: functional, cell-based; conditions: dose 0.5-5 µM
[21] = system: 3T3-L1; test: Upregulation of p18 protein expression in mouse 3T3-L1 cells at 0.5 to 5 uM after 18 hrs by western blot analysis; assay type: functional, cell-based; conditions: dose 0.5-5 µM
[22] = system: 3T3-L1; test: Down regulation of C/EBpalpha protein expression in mouse 3T3-L1 cells at 0.5 to 5 uM after 48 hrs by western blot analysis; assay type: functional, cell-based; conditions: dose 0.5-5 µM, DDE = dose-dependent effect
[23] = system: 3T3-L1; test: Down regulation of adiponectin protein expression in mouse 3T3-L1 cells in early differentiation at 0.5 to 5 uM after 8 days by western blot analysis; assay type: functional, cell-based; conditions: dose 0.5-5 µM, time 8.0 day
[24] = system: 3T3-L1; test: Down regulation of FABP4 protein expression in mouse 3T3-L1 cells in early differentiation at 0.5 to 5 uM after 8 days by western blot analysis; assay type: functional, cell-based; conditions: dose 0.5-5 µM, time 8.0 day
[25] = system: 3T3-L1; test: Down regulation of FABP4 protein expression in mouse 3T3-L1 cells in maturation at 0.5 to 5 uM after 10 days by western blot analysis; assay type: functional, cell-based; conditions: dose 0.5-5 µM, time 10.0 day
[26] = system: 3T3-L1; test: Down regulation of PL1N1 mRNA expression in mouse 3T3-L1 cells in early differentiation at 0.5 to 5 uM after 8 days by RT-qPCR analysis; assay type: functional, cell-based; conditions: dose 0.5-5 µM, time 8.0 day
[27] = system: 3T3-L1; test: Down regulation of LPL mRNA expression in mouse 3T3-L1 cells in maturation at 0.5 to 5 uM after 10 days by RT-qPCR analysis; assay type: functional, cell-based; conditions: dose 0.5-5 µM, time 10.0 day
[28] = system: 3T3-L1; test: Down regulation of adiponectin mRNA expression in mouse 3T3-L1 cells in maturation at 0.5 to 5 uM after 10 days by RT-qPCR analysis; assay type: functional, cell-based; conditions: dose 0.5-5 µM, time 10.0 day
[29] = system: 3T3-L1; test: Down regulation of FABP4 mRNA expression in mouse 3T3-L1 cells in maturation at 0.5 to 5 uM after 10 days by RT-qPCR analysis; assay type: functional, cell-based; conditions: dose 0.5-5 µM, time 10.0 day
[30] = target: RAC-alpha serine/threonine-protein kinase (Mus musculus) (UniProt P31750); test: Inhibition of AKT in mouse 3T3-L1 cells assessed as reduction in AKT phosphorylation in maturation at 0.5 to 5 uM after 48 hrs by Western blot analysis; assay type: cell-based; conditions: dose 0.5-5 µM
[31] = system: 3T3-L1; test: Inhibition of AKT/GSK3beta signalling pathway in mouse 3T3-L1 cells assessed as reduction in GSK3beta phosphorylation in maturation at 0.5 to 5 uM after 48 hrs by Western blot analysis; assay type: cell-based; conditions: dose 0.5-5 µM
[32] = target: T1, 5'-AMP-activated protein kinase (Mus musculus); test: Activation of AMPK in mouse 3T3-L1 cells assessed as increase in AMPKalpha phosphorylation in maturation at 0.5 to 5 uM after 48 hrs by Western blot analysis; assay type: cell-based; conditions: filed as activator, dose 0.5-5 µM
[33] = target: T1, 5'-AMP-activated protein kinase (Mus musculus); test: Activation of AMPK in mouse 3T3-L1 cells assessed as increase in AMPKbeta phosphorylation in maturation at 0.5 to 5 uM after 48 hrs by Western blot analysis; assay type: cell-based; conditions: filed as activator, dose 0.5-5 µM
[34] = system: 3T3-L1; test: Activation of AMPK-ACC signalling pathway in mouse 3T3-L1 cells assessed as increase in ACC phosphorylation in maturation at 0.5 to 5 uM after 48 hrs by Western blot analysis; assay type: cell-based; conditions: filed as activator, dose 0.5-5 µM

RAC-alpha serine/threonine-protein kinase (Mus musculus), sequence (P31750 whole entry): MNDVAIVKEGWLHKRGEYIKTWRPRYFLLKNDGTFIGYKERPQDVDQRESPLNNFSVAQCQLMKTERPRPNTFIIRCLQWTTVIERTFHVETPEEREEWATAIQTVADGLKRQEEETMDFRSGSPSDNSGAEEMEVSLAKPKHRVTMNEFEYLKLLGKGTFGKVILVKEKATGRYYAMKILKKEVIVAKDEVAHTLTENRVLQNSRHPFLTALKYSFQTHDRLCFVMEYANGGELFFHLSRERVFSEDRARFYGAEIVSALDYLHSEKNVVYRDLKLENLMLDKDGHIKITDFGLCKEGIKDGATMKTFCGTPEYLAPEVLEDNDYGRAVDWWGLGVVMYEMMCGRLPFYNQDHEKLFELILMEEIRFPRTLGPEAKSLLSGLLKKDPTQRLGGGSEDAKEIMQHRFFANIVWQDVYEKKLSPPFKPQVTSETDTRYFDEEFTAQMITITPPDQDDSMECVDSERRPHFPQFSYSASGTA

## COc1cc(CCc2cc(O)c(O)c(OC)c2)ccc1O
[1]
  Activity: Active
[2]
  IC50 at 48 h: 35.5 µM
[3]
  Activity: Toxic
[4]
  Activity: Non-Toxic
[5]
  Activity: Non-Toxic
[6]
  Activity: Non-Toxic
[7]
  inhibition: Active
[8]
  inhibition: Active
[9]
  inhibition: Active
[10]
  inhibition: Dde
[11]
  inhibition: Dde
[12]
  inhibition: Dde
[13]
  inhibition: Dde
[14]
  Activity: Active
[15]
  Activity: Active
[16]
  Activity: Active
[17]
  Activity: Active
[18]
  Activity: Active
[19]
  Activity: Active
[20]
  Activity: Active
[21]
  Activity: Active
[22]
  Activity: Dde
[23]
  Activity: Active
[24]
  Activity: Active
[25]
  Activity: Active
[26]
  Activity: Active
[27]
  Activity: Active
[28]
  Activity: Active
[29]
  Activity: Active
[30]
  inhibition: Active
[31]
  inhibition: Active
[32]
  Activity: Active
[33]
  Activity: Active
[34]
  Activity: Active
